ChEMBL document CHEMBL1141121, “Selective inhibition of MCF-7(piGST) breast tumors using glutathione transferase-derived 2-methylene-cycloalkenones” (J Med Chem, 2005)

Legend:
Format in all cases: cell-based
[1] = target: T1, Glutathione S-transferase P (Homo sapiens, UniProt P09211); test: Inhibitory concentration against GSTP1-1 over-expressed in MCF-7piGST cells
Target sequence in this assay (P09211 whole entry): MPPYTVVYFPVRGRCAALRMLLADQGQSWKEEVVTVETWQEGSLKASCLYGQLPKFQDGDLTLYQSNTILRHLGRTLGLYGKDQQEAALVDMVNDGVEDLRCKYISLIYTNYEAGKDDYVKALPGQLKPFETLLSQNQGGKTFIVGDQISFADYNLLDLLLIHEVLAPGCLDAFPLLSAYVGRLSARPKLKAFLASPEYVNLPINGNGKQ

[2] = target: T1, Glutathione S-transferase P; test: Inhibitory concentration against GSTP1-1 over-expressed in MCF7wt cells
Target sequence in this assay (P09211 whole entry): as above

[3] = target: T1, Glutathione S-transferase P; test: Ratio between MCF7wt to MCF-7piGST cells overexpressing in GSTP1-1
Target sequence in this assay (P09211 2-210 limits assumed): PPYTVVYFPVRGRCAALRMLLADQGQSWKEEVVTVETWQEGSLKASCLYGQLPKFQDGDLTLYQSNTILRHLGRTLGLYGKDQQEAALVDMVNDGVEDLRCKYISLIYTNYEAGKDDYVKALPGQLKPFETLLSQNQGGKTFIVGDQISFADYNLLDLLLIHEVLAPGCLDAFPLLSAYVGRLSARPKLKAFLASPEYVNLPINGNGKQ

C/C=C/C(=O)OCC1=CCCCC1=O
IC50 [1]: 13.2 µM
IC50 [2]: 29.6 µM
Ratio [3]: 2.2

C/C=C/OC(=O)CC1=CCCCCC1=O
IC50 [1]: 2.6 µM
IC50 [2]: 10.8 µM
Ratio [3]: 4.2
